Experimental data published in patent US20190142800A1, “SYNERGISTIC ANTIFUNGAL COMPOSITIONS AND METHODS THEREOF” (VYOME THERAPEUTICS LIMITED, priority 2016, published 2019).

Tests used:
[1] = tested on: terbinafine resistant Trichophyton interdigitale (GTB-2S); experiment: Checkerboard assay on terbinafine resistant Trichophyton interdigitale (GTB-2S); format: cell-based; conditions: for MIC: Trichophyton interdigitale
Protocol: (§1) The synergy is measured by determining the fractional inhibitory concentration (FIC) value of the combination. This experimental set up, called checkerboard method, allows measurement of a desired effect (inhibition of fungal growth in this case) at different combinations of various concentrations of the two agents (antifungal agent and fatty acid/ester). […] No agent is added to the penultimate column on the right and the bottom row. The final column on the right is used for growth control (only inoculum in broth) and sterility control (broth alone, no inoculum). […] FIC values for both agents in a particular well were calculated in this way followed by determination of the FIC index (sum of the FICs of each drug in the concerned well). […] Agents Chemother.
(§2) Using the checkerboard layout experimental setup described above (FIG. 1A), various medium-chain fatty acids were tested for their ability to potentiate the activity of a known antifungal agent. Concentrations above and below the MIC of each test agent were tested using serial dilution. The same procedure was expanded to test combinations of various medium-chain fatty acids C-1 to C-14 (such caprylic acid, undecylenic acid and lauric acid) and esters thereof, with antifungal agents from various classes including azoles, allylamines, benzylamines, zinc pyrithione and piroctone olamine against both susceptible and resistant Trichophyton spp. (filamentous fungus) and Candida spp. (yeast).
(§3) Potentiation of the activity of antimycotic agents using ester derivatives of medium chain fatty acids was tested in a standard, well accepted in vitro assay system to check for synergy. This experimental set up, called checkerboard method, allows measurement of a desired effect (inhibition of fungal growth in this case) at different combinations of various concentrations of two agents. A chosen medium chain fatty acid (C-1 to C-14) or its ester derivative was tested for its ability to potentiate the activity of a known antifungal agent (various classes) using the checkerboard layout. Various concentrations above and below the MIC of each test agent were tested using serial dilution in Sabouraud dextrose broth. […] FIC values for both test agents in a particular well are calculated in this way followed by determination of the FIC index (sum of the FICs of each drug in the concerned well).

[2] = tested on: azole resistant C. albicans MTCC 227; experiment: Checkerboard assay on azole resistant C. albicans MTCC 227; format: cell-based, Candida albicans; conditions: for MIC: Candida albicans, MTCC227, agent alone
Protocol: as §1, §2, §3

C. albicans (ATCC-90028) = experiment: Checkerboard assay on C. albicans (ATCC-90028); format: cell-based, Candida albicans; conditions: for MIC: Candida albicans, ATCC90028, agent alone, Table 8
Protocol: (§4) The synergy is measured by determining the fractional inhibitory concentration (FIC) value of the combination. This experimental set up, called checkerboard method, allows measurement of a desired effect (inhibition of fungal growth in this case) at different combinations of various concentrations of the two agents (antifungal agent and fatty acid/ester). […] No agent is added to the penultimate column on the right and the bottom row. The final column on the right is used for growth control (only inoculum in broth) and sterility control (broth alone, no inoculum). […] FIC value for each agent in a particular well of the checkerboard layout was calculated by dividing the agent concentration in that well by the established MIC value of the agent against the test organism (Hsieh et al., Synergy assessed by checkerboard: A critical Analysis, Diagn. Microbiol. Infect Dis. (1993) 16:343-349). FIC values for both agents in a particular well were calculated in this way followed by determination of the FIC index (sum of the FICs of each drug in the concerned well). […] Agents Chemother. (2010) 54(2): 602-609].
as §2
(§5) Potentiation of the activity of antimycotic agents using ester derivatives of medium chain fatty acids was tested in a standard, well accepted in vitro assay system to check for synergy. This experimental set up, called checkerboard method, allows measurement of a desired effect (inhibition of fungal growth in this case) at different combinations of various concentrations of two agents. A chosen medium chain fatty acid (C-1 to C-14) or its ester derivative was tested for its ability to potentiate the activity of a known antifungal agent (various classes) using the checkerboard layout. Various concentrations above and below the MIC of each test agent were tested using serial dilution in Sabouraud dextrose broth. […] FIC value for a drug in a particular well of the checkerboard layout is calculated by dividing the drug concentration in that well by the established MIC value of the drug against the test organism (Hsieh et al., Synergy assessed by checkerboard: A critical Analysis, Diagn. Microbiol. Infect Dis. (1993) 16:343-349). FIC values for both test agents in a particular well are calculated in this way followed by determination of the FIC index (sum of the FICs of each drug in the concerned well).

[3] = tested on: Trichophyton rubrum (ATCC-28188); experiment: Checkerboard assay of fatty acid/ester with antifungals on Trichophyton rubrum (ATCC 28188); format: cell-based; design: key to FIC index: FIC index = sum of FICs; FIC = agent conc in well / agent MIC; conditions: for MIC: Trichophyton rubrum, ATCC28188, agent alone
Protocol: as §4, §2, §5

[4] = agent's MIC in combination terbinafine or butenafine + caprylic acid
[5] = agent's MIC in combination terbinafine or butenafine + glyceryl monocaprylate
[6] = combination terbinafine or butenafine + caprylic acid
[7] = combination terbinafine or butenafine + glyceryl monocaprylate
[8] = in combination with caprylic acid
[9] = in combination with glyceryl monocaprylate
[10] = in combination with propylene glycol monocaprylate
[11] = Table 11, glyceryl monocaprylate series
[12] = agent's MIC in combination antifungal + glyceryl monocaprylate (partner: other agent of same combination no.)
[13] = combination antifungal + glyceryl monocaprylate
[14] = agent's MIC in combination luliconazole + glyceryl monocaprylate
[15] = combination luliconazole + glyceryl monocaprylate
[16] = Table 9, caprylic acid (C8) series
[17] = Table 10, propylene glycol monocaprylate series
[18] = Table 12, undecylenic acid (C11) series
[19] = Table 13, lauric acid (C12) series
[20] = agent's MIC in combination antifungal + caprylic acid (partner: other agent of same combination no.)
[21] = agent's MIC in combination antifungal + lauric acid (partner: other agent of same combination no.)
[22] = agent's MIC in combination antifungal + propylene glycol monocaprylate (partner: other agent of same combination no.)
[23] = agent's MIC in combination antifungal + undecylenic acid (partner: other agent of same combination no.)
[24] = antifungal in combination with caprylic acid
[25] = antifungal in combination with glyceryl monocaprylate
[26] = antifungal in combination with lauric acid
[27] = antifungal in combination with propylene glycol monocaprylate
[28] = antifungal in combination with propylene glycol monolaurate
[29] = antifungal in combination with undecylenic acid
[30] = combination antifungal + caprylic acid
[31] = combination antifungal + lauric acid
[32] = combination antifungal + propylene glycol monocaprylate
[33] = combination antifungal + undecylenic acid

## CN(Cc1ccc(C(C)(C)C)cc1)Cc1cccc2ccccc12 [Butenafine]
[1]; agent alone, Table 7
  MIC: 7.5 µg/mL
[1]; [4]
  Combination MIC: 0.468 µg/mL
[1]; [5]
  Combination MIC: 0.234 µg/mL
[1]; agent's MIC in combination terbinafine or butenafine + propylene glycol monocaprylate
  Combination MIC: 0.117 µg/mL
[1]; [6]
  FIC: 0.0625
[1]; [7]
  FIC: 0.0312
[1]; combination terbinafine or butenafine + propylene glycol monocaprylate
  FIC: 0.016
[1]; [8]
  FIC index: 0.562
  Interaction: Synergistic (Combinations that gave FIC indices less than 1 were designated “synergistic”)
[1]; [9]
  FIC index: 0.531
  Interaction: Synergistic (Combinations that gave FIC indices less than 1 were designated “synergistic”)
[1]; [10]
  FIC index: 0.516
  Interaction: Synergistic (Combinations that gave FIC indices less than 1 were designated “synergistic”)

## CCCCCCCC(=O)OCC(O)CO (stereo not shown) [Glyceryl monocaprylate]
[2]; [11]
  MIC: 1250 µg/mL
[2]; [12]
  Combination MIC: 312.5 µg/mL
[2]; [13]
  FIC: 0.25
[1]; agent alone, Table 7
  MIC: 15.6 µg/mL
[1]; [5]
  Combination MIC: 7.812 µg/mL
[1]; [7]
  FIC: 0.5
C. albicans (ATCC-90028)
  MIC: 500 µg/mL
C. albicans (ATCC-90028); [14]
  Combination MIC: 31.25 µg/mL
C. albicans (ATCC-90028); [15]
  FIC: 0.0625

## CC(=O)N1CCN(c2ccc(OCC3COC(Cn4ccnc4)(c4ccc(Cl)cc4Cl)O3)cc2)CC1 (stereo not shown) [Ketoconazole]
[2]; [16]
  MIC: 64 µg/mL
[2]; [17]
  MIC: 128 µg/mL
[2]; [11]
  MIC: 128 µg/mL
[2]; [18]
  MIC: 128 µg/mL
[2]; [19]
  MIC: 64 µg/mL
[2]; Table 14, propylene glycol monolaurate series
  MIC: 128 µg/mL
[2]; [20]
  Combination MIC: 0.25 µg/mL
[2]; [12]
  Combination MIC: 2 µg/mL
[2]; [21]
  Combination MIC: 0.25 µg/mL
[2]; [22]
  Combination MIC: 8 µg/mL
[2]; agent's MIC in combination antifungal + propylene glycol monolaurate (partner: other agent of same combination no.)
  Combination MIC: 32 µg/mL
[2]; [23]
  Combination MIC: 1 µg/mL
[2]; [24]
  FIC index: 0.253
  Interaction: Synergistic (Combinations that gave FIC indices less than 1 were designated “synergistic”)
[2]; [25]
  FIC index: 0.265
  Interaction: Synergistic (Combinations that gave FIC indices less than 1 were designated “synergistic”)
[2]; [26]
  FIC index: 0.127
  Interaction: Synergistic (Combinations that gave FIC indices less than 1 were designated “synergistic”)
[2]; [27]
  FIC index: 0.187
  Interaction: Synergistic (Combinations that gave FIC indices less than 1 were designated “synergistic”)
[2]; [28]
  FIC index: 0.281
  Interaction: Synergistic (Combinations that gave FIC indices less than 1 were designated “synergistic”)
[2]; [29]
  FIC index: 0.132
  Interaction: Synergistic (Combinations that gave FIC indices less than 1 were designated “synergistic”)
[2]; [30]
  FIC: 0.003
[2]; [13]
  FIC: 0.0156
[2]; [31]
  FIC: 0.003
[2]; [32]
  FIC: 0.0625
[2]; combination antifungal + propylene glycol monolaurate
  FIC: 0.25
[2]; [33]
  FIC: 0.0078
[3]; Table 1, caprylic acid series
  MIC: 0.312 µg/mL
[3]; Table 2, propylene glycol monocaprylate series
  MIC: 0.3 µg/mL
[3]; Table 3, glyceryl monocaprylate series
  MIC: 0.321 µg/mL
[3]; [20]
  Combination MIC: 0.0781 µg/mL
[3]; [12]
  Combination MIC: 0.009 µg/mL
[3]; [22]
  Combination MIC: 0.0375 µg/mL
[3]; [24]
  FIC index: 0.5
  Interaction: Synergistic (Combinations that gave FIC indices less than 1 were designated “synergistic”)
[3]; [25]
  FIC index: 0.531
  Interaction: Synergistic (Combinations that gave FIC indices less than 1 were designated “synergistic”)
[3]; [27]
  FIC index: 0.625
  Interaction: Synergistic (Combinations that gave FIC indices less than 1 were designated “synergistic”)
[3]; [30]
  FIC: 0.25
[3]; [13]
  FIC: 0.031
[3]; [32]
  FIC: 0.125

## CCCCCCCCCCCC(=O)O [Lauric acid]
[2]; [19]
  MIC: 3120 µg/mL
[3]; Table 5, lauric acid (C12) series
  MIC: 15.6 µg/mL

## N#C/C(=C1/SC[C@@H](c2ccc(Cl)cc2Cl)S1)n1ccnc1 [Luliconazole]
[2]; [16]
  MIC: 8 µg/mL
[2]; [17]
  MIC: 8 µg/mL
[2]; [18]
  MIC: 8 µg/mL
[2]; [19]
  MIC: 8 µg/mL
[2]; [20]
  Combination MIC: 0.5 µg/mL
[2]; [21]
  Combination MIC: 1 µg/mL
[2]; [22]
  Combination MIC: 0.5 µg/mL
[2]; [23]
  Combination MIC: 1 µg/mL
[2]; [24]
  FIC index: 0.3
  Interaction: Synergistic (Combinations that gave FIC indices less than 1 were designated “synergistic”)
[2]; [26]
  FIC index: 0.25
  Interaction: Synergistic (Combinations that gave FIC indices less than 1 were designated “synergistic”)
[2]; [27]
  FIC index: 0.187
  Interaction: Synergistic (Combinations that gave FIC indices less than 1 were designated “synergistic”)
[2]; [29]
  FIC index: 0.187
  Interaction: Synergistic (Combinations that gave FIC indices less than 1 were designated “synergistic”)
[2]; [30]
  FIC: 0.062
[2]; [31]
  FIC: 0.125
[2]; [32]
  FIC: 0.0625
[2]; [33]
  FIC: 0.125
C. albicans (ATCC-90028)
  MIC: 7.5 µg/mL
C. albicans (ATCC-90028); agent's MIC in combination luliconazole + caprylic acid
  Combination MIC: 0.117 µg/mL
C. albicans (ATCC-90028); [14]
  Combination MIC: 0.117 µg/mL
C. albicans (ATCC-90028); combination luliconazole + caprylic acid
  FIC: 0.015
C. albicans (ATCC-90028); [15]
  FIC: 0.0156
C. albicans (ATCC-90028); [8]
  FIC index: 0.265
  Interaction: Synergistic (Combinations that gave FIC indices less than 1 were designated “synergistic”)
C. albicans (ATCC-90028); [9]
  FIC index: 0.0781
  Interaction: Synergistic (Combinations that gave FIC indices less than 1 were designated “synergistic”)

## CN(C/C=C/C#CC(C)(C)C)Cc1cccc2ccccc12 [Terbinafine]
[1]; agent alone, Table 7
  MIC: 30 µg/mL
  Agent MIC: 15 µg/mL
[1]; [4]
  Combination MIC: 0.117 µg/mL
[1]; [5]
  Combination MIC: 0.468 µg/mL
[1]; [6]
  FIC: 0.0078
[1]; [7]
  FIC: 0.0312
[1]; [8]
  FIC index: 0.5007
  Interaction: Synergistic (Combinations that gave FIC indices less than 1 were designated “synergistic”)
[1]; [9]
  FIC index: 0.531
  Interaction: Synergistic (Combinations that gave FIC indices less than 1 were designated “synergistic”)
[1]; [10]
  Interaction: Synergistic (Combinations that gave FIC indices less than 1 were designated “synergistic”)

## C=CCCCCCCCCC(=O)O [Undecylenic acid]
[2]; [18]
  MIC: 500 µg/mL
[3]; Table 4, undecylenic acid (C11) series
  MIC: 31.3 µg/mL
[3]; agent alone, Table 4, undecylenic acid (C11) series
  Agent MIC: 62.5 µg/mL
